Assay results taken from patent US20080009418A1, “Selective Inhibitors” (Alchemia LTD., priority 2004, published 2008).

Key:
Human δ-opioid (DOP) = biological target: T1, Human δ-opioid (DOP) (Homo sapiens, UniProt P41143); assay: Radioligand binding, human δ-opioid (DOP) membranes, FlashPlate, [3H]-Bremazocine; settings: compound at 10 μM, [3H]-Bremazocine; for A1: inhibition of radioligand binding: FlashPlate
T1 construct: purchased Perkin Elmer Biosignal
Method in brief: (§1)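 Cloned human receptor membranes were coated onto FlashPlate wells and incubated with radioligand and compound (added from a 0.5 mM DMSO daughter plate) for 1 hour at room temperature in the dark. Scintillation counting gave percent inhibition, with DMSO defining total and reference ligand defining non-specific binding.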

Human neurokinin (NK1) = biological target: T2, Human neurokinin (NK1) (Homo sapiens, UniProt P25103); assay: Radioligand binding, human neurokinin NK1 membranes, filtration, [125I]-Substance P; settings: compound at 10 μM, [125I]-Substance P; for A8: inhibition of radioligand binding: filtration
T2 construct: purchased Perkin Elmer Biosignal
T2 sequence (P25103 whole entry): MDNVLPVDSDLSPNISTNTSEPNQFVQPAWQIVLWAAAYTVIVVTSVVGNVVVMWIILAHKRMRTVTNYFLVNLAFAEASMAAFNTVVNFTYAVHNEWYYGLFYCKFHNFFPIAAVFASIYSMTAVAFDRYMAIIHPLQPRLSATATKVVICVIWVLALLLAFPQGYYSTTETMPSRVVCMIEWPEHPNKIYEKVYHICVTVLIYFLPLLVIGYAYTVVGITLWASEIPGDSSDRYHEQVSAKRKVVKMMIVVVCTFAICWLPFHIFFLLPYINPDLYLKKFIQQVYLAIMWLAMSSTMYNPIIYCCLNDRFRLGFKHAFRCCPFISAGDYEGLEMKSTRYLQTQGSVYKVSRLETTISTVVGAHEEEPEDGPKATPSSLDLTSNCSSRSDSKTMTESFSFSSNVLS
Method in brief: (§2)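 Membranes from cloned human receptors were incubated with compound and radioligand for 1 hour at room temperature. Bound ligand was collected on 0.3% PEI-soaked filters, washed with cold 50 mM Tris-HCl pH 7.4, and counted by scintillation. Percent inhibition was computed against DMSO totals and reference-ligand nonspecific wells.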

Human melanocortin (MC5) = biological target: T3, Human melanocortin (MC5) (Homo sapiens, UniProt P33032); assay: Radioligand binding, human melanocortin MC5 membranes, FlashPlate, [125I]-NDP-αMSH; settings: compound at 10 μM, [125I]-NDP-αMSH; for A5: inhibition of radioligand binding: FlashPlate
T3 construct: purchased Perkin Elmer Biosignal
T3 sequence (P33032 whole entry): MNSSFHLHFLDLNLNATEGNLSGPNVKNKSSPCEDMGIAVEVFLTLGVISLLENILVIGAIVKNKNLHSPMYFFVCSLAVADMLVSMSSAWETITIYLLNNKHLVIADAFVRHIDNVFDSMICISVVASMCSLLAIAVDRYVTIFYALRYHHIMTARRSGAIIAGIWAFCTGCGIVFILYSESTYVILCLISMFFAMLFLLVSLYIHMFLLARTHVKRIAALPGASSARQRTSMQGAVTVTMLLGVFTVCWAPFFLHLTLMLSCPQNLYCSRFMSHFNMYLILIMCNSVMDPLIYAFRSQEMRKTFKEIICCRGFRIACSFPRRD
Method in brief: as §1

Mouse urotensin (mUR2) = biological target: T4, Mouse urotensin (mUR2) (Mus musculus, UniProt Q8VIH9); assay: Radioligand binding, mouse urotensin mUR2 membranes, FlashPlate, [125I]-Urotensin II; settings: compound at 10 μM, [125I]-Urotensin II; for A11: inhibition of radioligand binding: FlashPlate
T4 construct: purchased Perkin Elmer Biosignal
T4 sequence (Q8VIH9 1-385): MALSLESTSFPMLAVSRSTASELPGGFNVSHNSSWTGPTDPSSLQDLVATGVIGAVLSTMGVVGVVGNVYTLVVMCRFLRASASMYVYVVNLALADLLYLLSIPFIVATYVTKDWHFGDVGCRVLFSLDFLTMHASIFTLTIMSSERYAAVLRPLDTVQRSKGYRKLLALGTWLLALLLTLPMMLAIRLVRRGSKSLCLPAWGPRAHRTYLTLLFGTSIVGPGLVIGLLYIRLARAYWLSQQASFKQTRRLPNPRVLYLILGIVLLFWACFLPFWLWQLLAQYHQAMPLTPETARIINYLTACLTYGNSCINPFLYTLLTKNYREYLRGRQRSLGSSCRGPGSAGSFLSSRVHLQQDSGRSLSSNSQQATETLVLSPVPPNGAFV
Method in brief: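 Cloned mouse urotensin (mUR2) receptor membranes from Perkin Elmer Biosignal were immobilized in FlashPlate microplates using a proprietary coating. Each well got 19.5 μl buffer, then 0.5 μl of DMSO, reference ligand, or compound. Adding 5 μl of [125I]-Urotensin II, diluted to 5× final concentration in binding buffer, started binding. Plates were sealed with TopSeal-A and incubated 1 hour at room temperature in the dark. Wells were counted for 30 seconds each on a TopCount after a 60-second delay, and percentage inhibition was calculated.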

[1] = biological target: T5, Human neuropeptide Y (NPY-Y1) (Homo sapiens, UniProt P25929); assay: Radioligand binding, human neuropeptide Y NPY-Y1 membranes, FlashPlate, [125I]-PYY; settings: compound at 10 μM, [125I]-PYY; for A9: inhibition of radioligand binding: FlashPlate
T5 construct: purchased Perkin Elmer Biosignal
T5 sequence (P25929 1-384): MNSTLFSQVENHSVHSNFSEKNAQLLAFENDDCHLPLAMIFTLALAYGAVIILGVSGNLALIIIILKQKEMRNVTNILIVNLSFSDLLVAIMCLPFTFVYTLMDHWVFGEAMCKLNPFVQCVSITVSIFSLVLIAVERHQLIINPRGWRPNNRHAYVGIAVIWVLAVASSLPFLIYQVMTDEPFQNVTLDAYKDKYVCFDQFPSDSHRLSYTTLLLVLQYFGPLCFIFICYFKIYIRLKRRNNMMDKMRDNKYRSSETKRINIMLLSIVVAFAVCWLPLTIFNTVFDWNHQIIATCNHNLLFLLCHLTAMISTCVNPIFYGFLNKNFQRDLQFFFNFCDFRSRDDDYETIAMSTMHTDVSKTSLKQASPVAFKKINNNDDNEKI
Method in brief: as §1

Human κ-Opioid (KOP) = biological target: T6, Human κ-Opioid (KOP) (Homo sapiens, UniProt P41145); assay: Radioligand binding, human κ-opioid (KOP) membranes, filtration, [3H]-Diprenorphine; settings: compound at 10 μM, [3H]-Diprenorphine; for A2: inhibition of radioligand binding: filtration
T6 construct: purchased Perkin Elmer Biosignal
T6 sequence (P41145 whole entry): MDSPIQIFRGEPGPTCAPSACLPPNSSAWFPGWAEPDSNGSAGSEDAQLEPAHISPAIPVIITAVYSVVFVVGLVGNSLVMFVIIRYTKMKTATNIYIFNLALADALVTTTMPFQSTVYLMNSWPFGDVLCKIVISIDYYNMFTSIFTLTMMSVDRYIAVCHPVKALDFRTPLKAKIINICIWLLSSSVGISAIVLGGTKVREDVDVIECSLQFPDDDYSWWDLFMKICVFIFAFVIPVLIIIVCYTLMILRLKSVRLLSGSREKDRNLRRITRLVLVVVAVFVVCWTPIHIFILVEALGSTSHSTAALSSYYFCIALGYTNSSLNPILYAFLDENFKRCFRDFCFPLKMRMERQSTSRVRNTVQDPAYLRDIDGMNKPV
Method in brief: as §2

Human opioid (ORL1) = biological target: T7, Human opioid (ORL1) (Homo sapiens, UniProt P41146); assay: Radioligand binding, human opioid ORL1 membranes, FlashPlate, [125I]-Nociceptin; settings: compound at 10 μM, [125I]-Nociceptin; for A10: inhibition of radioligand binding: FlashPlate
T7 construct: purchased Perkin Elmer Biosignal
T7 sequence (P41146 whole entry): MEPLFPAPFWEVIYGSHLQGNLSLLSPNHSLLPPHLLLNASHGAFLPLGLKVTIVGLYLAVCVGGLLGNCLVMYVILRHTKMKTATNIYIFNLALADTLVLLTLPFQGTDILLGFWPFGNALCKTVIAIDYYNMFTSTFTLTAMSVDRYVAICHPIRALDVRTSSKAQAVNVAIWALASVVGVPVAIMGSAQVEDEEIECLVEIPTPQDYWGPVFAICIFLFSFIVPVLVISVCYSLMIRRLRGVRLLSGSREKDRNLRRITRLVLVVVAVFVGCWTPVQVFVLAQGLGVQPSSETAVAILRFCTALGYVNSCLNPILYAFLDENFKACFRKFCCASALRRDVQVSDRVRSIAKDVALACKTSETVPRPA
Method in brief: as §1

Human μ-opioid (MOP) = biological target: T8, Human μ-opioid (MOP) (Homo sapiens, UniProt P35372); assay: Radioligand binding, human μ-opioid (MOP) membranes, FlashPlate, [3H]-Naloxone; settings: compound at 10 μM, [3H]-Naloxone; for A7: inhibition of radioligand binding: FlashPlate
T8 construct: purchased Perkin Elmer Biosignal
T8 sequence (P35372 whole entry): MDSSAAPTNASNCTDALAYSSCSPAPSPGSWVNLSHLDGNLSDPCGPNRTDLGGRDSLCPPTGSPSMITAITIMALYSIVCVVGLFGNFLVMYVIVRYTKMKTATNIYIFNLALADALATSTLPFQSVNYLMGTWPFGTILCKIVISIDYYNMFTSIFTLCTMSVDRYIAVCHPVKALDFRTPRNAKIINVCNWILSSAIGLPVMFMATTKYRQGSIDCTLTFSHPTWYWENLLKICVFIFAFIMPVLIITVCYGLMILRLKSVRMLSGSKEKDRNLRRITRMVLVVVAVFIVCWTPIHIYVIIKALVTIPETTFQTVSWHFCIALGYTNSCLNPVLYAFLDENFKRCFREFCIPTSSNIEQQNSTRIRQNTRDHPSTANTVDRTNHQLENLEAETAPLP
Method in brief: as §1

Human Melanocortin (MC3) = biological target: T9, Human Melanocortin (MC3) (Homo sapiens, UniProt P41968); assay: Radioligand binding, human melanocortin MC3 membranes, FlashPlate, [125I]-NDP-αMSH; settings: compound at 10 μM, [125I]-NDP-αMSH; for A3: inhibition of radioligand binding: FlashPlate
T9 construct: purchased Perkin Elmer Biosignal
T9 sequence (P41968 whole entry): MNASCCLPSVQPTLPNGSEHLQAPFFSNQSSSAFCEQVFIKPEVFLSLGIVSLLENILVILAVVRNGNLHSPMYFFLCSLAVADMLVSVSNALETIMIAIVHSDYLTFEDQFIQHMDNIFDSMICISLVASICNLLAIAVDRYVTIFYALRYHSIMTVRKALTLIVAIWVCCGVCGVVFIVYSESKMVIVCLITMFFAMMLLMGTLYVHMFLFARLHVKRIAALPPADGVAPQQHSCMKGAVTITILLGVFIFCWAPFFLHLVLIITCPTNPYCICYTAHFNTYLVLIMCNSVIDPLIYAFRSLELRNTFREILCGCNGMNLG
Method in brief: as §1

Human Melanocortin (MC4) = biological target: T10, Human Melanocortin (MC4) (Homo sapiens, UniProt P32245); assay: Radioligand binding, human melanocortin MC4 membranes, FlashPlate, [125I]-NDP-αMSH; settings: compound at 10 μM, [125I]-NDP-αMSH; for A4: inhibition of radioligand binding: FlashPlate
T10 construct: purchased Perkin Elmer Biosignal
T10 sequence (P32245 whole entry): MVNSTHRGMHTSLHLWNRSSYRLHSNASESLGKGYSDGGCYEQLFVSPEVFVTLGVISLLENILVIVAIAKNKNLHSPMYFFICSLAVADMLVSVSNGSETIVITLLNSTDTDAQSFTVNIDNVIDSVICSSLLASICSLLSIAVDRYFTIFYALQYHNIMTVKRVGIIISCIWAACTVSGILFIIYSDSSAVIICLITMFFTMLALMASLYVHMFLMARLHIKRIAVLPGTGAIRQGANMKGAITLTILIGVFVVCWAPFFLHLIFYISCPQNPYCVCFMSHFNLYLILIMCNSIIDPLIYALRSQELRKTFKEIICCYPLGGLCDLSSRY
Method in brief: as §1

[2] = biological target: T11, Human melanin-concentrating hormone (MCH1) (Homo sapiens, UniProt Q99705); assay: Radioligand binding, human melanin-concentrating hormone MCH1 membranes, FlashPlate, [125I]-S36057; settings: compound at 10 μM; for A6: inhibition of radioligand binding: [125I]-S36057, FlashPlate
T11 construct: purchased Perkin Elmer Biosignal
T11 sequence (Q99705 whole entry): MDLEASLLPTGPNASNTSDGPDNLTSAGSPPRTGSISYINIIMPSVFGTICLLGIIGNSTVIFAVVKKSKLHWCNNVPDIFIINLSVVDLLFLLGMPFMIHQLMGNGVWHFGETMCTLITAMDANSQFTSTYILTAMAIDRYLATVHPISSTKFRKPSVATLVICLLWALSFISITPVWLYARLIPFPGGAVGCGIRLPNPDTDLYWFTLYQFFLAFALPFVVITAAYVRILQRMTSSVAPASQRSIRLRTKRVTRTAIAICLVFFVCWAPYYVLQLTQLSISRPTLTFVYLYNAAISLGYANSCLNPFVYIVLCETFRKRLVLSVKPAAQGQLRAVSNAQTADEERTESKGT
Method in brief: as §1

T1 sequence (P41143 whole entry): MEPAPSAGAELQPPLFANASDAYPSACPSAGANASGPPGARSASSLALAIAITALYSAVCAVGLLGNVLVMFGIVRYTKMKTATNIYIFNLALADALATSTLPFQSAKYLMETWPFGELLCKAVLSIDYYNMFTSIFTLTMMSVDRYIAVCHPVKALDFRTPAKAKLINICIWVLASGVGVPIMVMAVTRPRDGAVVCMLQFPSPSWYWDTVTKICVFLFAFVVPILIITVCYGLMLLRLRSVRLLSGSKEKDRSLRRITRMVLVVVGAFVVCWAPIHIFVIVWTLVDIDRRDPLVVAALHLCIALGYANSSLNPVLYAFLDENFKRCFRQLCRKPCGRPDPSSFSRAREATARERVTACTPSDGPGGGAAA

| Structure (SMILES) | A1: inhibition of radioligand binding, human δ-opioid (DOP) (Human δ-opioid (DOP)) | A8: inhibition of radioligand binding, human neurokinin (NK1) (Human neurokinin (NK1)) | A5: inhibition of radioligand binding, human melanocortin (MC5) (Human melanocortin (MC5)) | A11: inhibition of radioligand binding, mouse urotensin (mUR2) (Mouse urotensin (mUR2)) | A9: inhibition of radioligand binding, human neuropeptide Y (NPY-Y1) [1] | A2: inhibition of radioligand binding, human κ-opioid (KOP) (Human κ-Opioid (KOP)) | A7: inhibition of radioligand binding, human μ-opioid (MOP) (Human μ-opioid (MOP)) | A3: inhibition of radioligand binding, human melanocortin (MC3) (Human Melanocortin (MC3)) | A6: inhibition of radioligand binding, human melanin-concentrating hormone (MCH1) ([2]; [125I]-S36057) | A1: inhibition of radioligand binding (Human δ-opioid (DOP)) | A8: inhibition of radioligand binding (Human neurokinin (NK1)) | A5: inhibition of radioligand binding (Human melanocortin (MC5)) | A11: inhibition of radioligand binding (Mouse urotensin (mUR2)) | A9: inhibition of radioligand binding [1] | A2: inhibition of radioligand binding (Human κ-Opioid (KOP)) | A10: inhibition of radioligand binding (Human opioid (ORL1)) | A7: inhibition of radioligand binding (Human μ-opioid (MOP)) | A3: inhibition of radioligand binding (Human Melanocortin (MC3)) | A4: inhibition of radioligand binding (Human Melanocortin (MC4)) | A6: inhibition of radioligand binding [2] | other results |
| --- | --- | --- | --- | --- | --- | --- | --- | --- | --- | --- | --- | --- | --- | --- | --- | --- | --- | --- | --- | --- | --- |
| CSC1O[C@H](COCc2ccc(-c3ccccc3)cc2)[C@@H](O)[C@@H](OCc2ccc(-c3ccccc3)cc2)[C@H]1NC(=O)CCCN (stereo partly shown) [compound 294] | − (“−” indicates less than 50% inhibition at 10 μM) | + (“+” indicates greater than 50% inhibition at 10 μM) | + (“+” indicates greater than 50% inhibition at 10 μM) | − (“−” indicates less than 50% inhibition at 10 μM) | − (“−” indicates less than 50% inhibition at 10 μM) | − (“−” indicates less than 50% inhibition at 10 μM) | − (“−” indicates less than 50% inhibition at 10 μM) | − (“−” indicates less than 50% inhibition at 10 μM) | − (“−” indicates less than 50% inhibition at 10 μM) |  |  |  |  |  |  |  |  |  |  |  | A10: inhibition of radioligand binding, human opioid (ORL1) (Human opioid (ORL1)): − (“−” indicates less than 50% inhibition at 10 μM); A4: inhibition of radioligand binding, human melanocortin (MC4) (Human Melanocortin (MC4)): − (“−” indicates less than 50% inhibition at 10 μM) |
| COCC1OC(OCc2ccccc2)C(NC(=O)CN)C(OCc2ccc(Cl)cc2)C1O (stereo not shown) [compound 176] |  |  |  |  |  |  |  |  |  |  |  |  |  |  |  |  |  |  |  |  | A1 radioligand binding, percentage inhibition (Human δ-opioid (DOP)): − (“−” indicates less than 50% inhibition at 10 μM); A8 radioligand binding, percentage inhibition (Human neurokinin (NK1)): + (“+” indicates greater than 50% inhibition at 10 μM); A5 radioligand binding, percentage inhibition (Human melanocortin (MC5)): − (“−” indicates less than 50% inhibition at 10 μM); A11 radioligand binding, percentage inhibition (Mouse urotensin (mUR2)): − (“−” indicates less than 50% inhibition at 10 μM); A9 radioligand binding, percentage inhibition [1]: − (“−” indicates less than 50% inhibition at 10 μM); A2 radioligand binding, percentage inhibition (Human κ-Opioid (KOP)): − (“−” indicates less than 50% inhibition at 10 μM); A10 radioligand binding, percentage inhibition (Human opioid (ORL1)): − (“−” indicates less than 50% inhibition at 10 μM); A7 radioligand binding, percentage inhibition (Human μ-opioid (MOP)): − (“−” indicates less than 50% inhibition at 10 μM); A3 radioligand binding, percentage inhibition (Human Melanocortin (MC3)): − (“−” indicates less than 50% inhibition at 10 μM); A4 radioligand binding, percentage inhibition (Human Melanocortin (MC4)): − (“−” indicates less than 50% inhibition at 10 μM); A6 radioligand binding, percentage inhibition ([2]; [125I]-S36057): − (“−” indicates less than 50% inhibition at 10 μM) |
| COCC1OC(OCCc2ccccc2)C(NC(=O)CCCNC(=N)N)C(OCc2ccccc2)C1O (stereo not shown) [compound 218] |  |  |  |  |  |  |  |  |  | − (“−” indicates less than 50% inhibition at 10 μM) | + (“+” indicates greater than 50% inhibition at 10 μM) | − (“−” indicates less than 50% inhibition at 10 μM) | − (“−” indicates less than 50% inhibition at 10 μM) | − (“−” indicates less than 50% inhibition at 10 μM) | − (“−” indicates less than 50% inhibition at 10 μM) | − (“−” indicates less than 50% inhibition at 10 μM) | − (“−” indicates less than 50% inhibition at 10 μM) | − (“−” indicates less than 50% inhibition at 10 μM) | − (“−” indicates less than 50% inhibition at 10 μM) | − (“−” indicates less than 50% inhibition at 10 μM) |  |
| NCCCC(=O)NC1C(OCc2ccc(Cl)cc2)OC(COCc2ccccc2)C(O)C1OCc1ccc2ccccc2c1 (single isomer, unassigned) [compound 498] | − (“−” indicates less than 50% inhibition at 10 μM) | + (“+” indicates greater than 50% inhibition at 10 μM) | + (“+” indicates greater than 50% inhibition at 10 μM) | − (“−” indicates less than 50% inhibition at 10 μM) | − (“−” indicates less than 50% inhibition at 10 μM) | − (“−” indicates less than 50% inhibition at 10 μM) | − (“−” indicates less than 50% inhibition at 10 μM) | − (“−” indicates less than 50% inhibition at 10 μM) | − (“−” indicates less than 50% inhibition at 10 μM) |  |  |  |  |  |  |  |  |  |  |  | A10: inhibition of radioligand binding, human opioid (ORL1) (Human opioid (ORL1); 10 µM): + (“+” indicates greater than 50% inhibition at 10 μM); A4: inhibition of radioligand binding, human melanocortin (MC4) (Human Melanocortin (MC4); 10 µM): + (“+” indicates greater than 50% inhibition at 10 μM) |
| COCC1OC(OCCc2ccccc2)C(NC(=O)CCN)C(OCc2ccc3ccccc3c2)C1O (stereo not shown) [compound 227] |  |  |  |  |  |  |  |  |  | − (“−” indicates less than 50% inhibition at 10 μM) | + (“+” indicates greater than 50% inhibition at 10 μM) | − (“−” indicates less than 50% inhibition at 10 μM) | − (“−” indicates less than 50% inhibition at 10 μM) | − (“−” indicates less than 50% inhibition at 10 μM) | − (“−” indicates less than 50% inhibition at 10 μM) | − (“−” indicates less than 50% inhibition at 10 μM) | − (“−” indicates less than 50% inhibition at 10 μM) | − (“−” indicates less than 50% inhibition at 10 μM) | − (“−” indicates less than 50% inhibition at 10 μM) | − (“−” indicates less than 50% inhibition at 10 μM) |  |
